Here are results for 1 molecule from article PMC10193966, “Structure of WNT inhibitor adenomatosis polyposis coli down-regulated 1 (APCDD1), a cell-surface lipid-binding protein” (Proceedings of the National Academy of Sciences of the …, 2023).

This assay addresses T1, eMBP-APCDD1 (APCDD1 ECD; lipid in ABD2) (Mus musculus, UniProt Q3U128).
T1 construct: extracellular domain residues 47-481, N-terminal engineered MBP fusion, C-terminal 8xHis; secreted from HEK293T (kifunensine); Endo-F1 and carboxypeptidase A/B treated in situ; single-span membrane protein without TM
The assay is described as follows: X-ray crystal structure ([…] Å); HPLC/MS of extract from purified APCDD1. As to conditions: co-purified lipid from HEK293 expression with 2% serum; ABD2 hydrophobic pocket, chains A and C; MS sample named only purified APCDD1. In kind it is binding.

T1 sequence (Q3U128 47-481): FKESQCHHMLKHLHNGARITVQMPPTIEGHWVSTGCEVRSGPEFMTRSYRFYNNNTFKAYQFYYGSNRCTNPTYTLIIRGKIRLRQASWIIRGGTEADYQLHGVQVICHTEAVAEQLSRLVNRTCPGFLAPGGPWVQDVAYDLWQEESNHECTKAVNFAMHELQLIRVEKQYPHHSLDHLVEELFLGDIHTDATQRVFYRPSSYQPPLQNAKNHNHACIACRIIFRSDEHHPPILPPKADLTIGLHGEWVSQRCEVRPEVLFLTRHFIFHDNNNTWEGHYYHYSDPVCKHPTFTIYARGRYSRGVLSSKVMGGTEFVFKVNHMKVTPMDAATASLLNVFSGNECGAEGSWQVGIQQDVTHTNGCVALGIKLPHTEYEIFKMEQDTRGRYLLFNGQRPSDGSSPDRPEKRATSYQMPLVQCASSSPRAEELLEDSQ

For the molecule `CCCCCCCCCCCCCCCCCC(=O)O` [stearic acid], the “X-ray crystal structure (2.3 Å); HPLC/MS of extract from purified APCDD1” value is on record as “This analysis revealed stearic acid, a C18 fatty acid”.
